{"source": "patent US20120226031A1", "about": "“PALMARUMYCIN BASED INHIBITORS OF THIOREDOXIN AND METHODS OF USING SAME” (ARIZONA BOARD OF REGENTS, ACTING ON BEHALF OF THE …, priority 2005, published 2012)", "key": {"[1]": {"target": "T1, human cytochrome P-450 reductase (Homo sapiens, UniProt P16435)", "T1 sequence (P16435 1-677)": "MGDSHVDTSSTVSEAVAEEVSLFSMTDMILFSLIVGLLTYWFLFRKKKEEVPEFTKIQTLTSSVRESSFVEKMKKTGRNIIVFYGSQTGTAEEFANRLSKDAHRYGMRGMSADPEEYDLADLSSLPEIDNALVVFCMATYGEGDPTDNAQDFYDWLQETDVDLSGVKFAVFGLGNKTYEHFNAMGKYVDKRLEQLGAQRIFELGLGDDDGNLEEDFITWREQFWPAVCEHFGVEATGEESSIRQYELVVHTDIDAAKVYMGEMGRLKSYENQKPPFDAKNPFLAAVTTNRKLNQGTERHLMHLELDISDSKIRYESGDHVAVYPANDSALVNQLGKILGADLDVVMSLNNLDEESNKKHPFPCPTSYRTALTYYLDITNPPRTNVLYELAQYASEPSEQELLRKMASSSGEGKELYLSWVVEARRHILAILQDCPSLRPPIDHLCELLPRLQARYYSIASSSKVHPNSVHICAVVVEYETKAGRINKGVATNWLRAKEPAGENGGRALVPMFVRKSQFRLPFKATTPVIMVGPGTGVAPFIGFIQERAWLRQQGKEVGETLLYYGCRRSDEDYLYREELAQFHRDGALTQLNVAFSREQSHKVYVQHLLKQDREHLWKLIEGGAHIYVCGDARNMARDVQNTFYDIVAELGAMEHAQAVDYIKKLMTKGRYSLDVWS", "experiment": "Inhibition of human cytochrome P-450 reductase (selectivity)", "assay_type": "biochemical", "experimental": "(§1) Based upon the observation that PX-916 was rapidly converted to PX-960 in aqueous solution, the ability of PX-960 to inhibit purified human TR was measured and found to be similar to that of PX-916 (Table 2). PX-916 was a selective inhibitor of human TR compared to two other NADPH dependent reductases with a selectivity of at least 200 for human glutathione reductase and human cytochrome P-450 reductase (Table 3)."}, "[2]": {"target": "T2, human cytochrome P-450 reductase (versus human thioredoxin reductase, TR) (Homo sapiens, UniProt P16435)", "T2 sequence (P16435 1-677)": "T1 sequence (P16435 1-677)", "experiment": "Inhibition of human cytochrome P-450 reductase (selectivity)", "assay_type": "biochemical", "details": "human", "experimental": "as §1"}, "[3]": {"target": "T3, cellular thioredoxin reductase (Homo sapiens, UniProt Q16881)", "T3 sequence (Q16881 1-649)": "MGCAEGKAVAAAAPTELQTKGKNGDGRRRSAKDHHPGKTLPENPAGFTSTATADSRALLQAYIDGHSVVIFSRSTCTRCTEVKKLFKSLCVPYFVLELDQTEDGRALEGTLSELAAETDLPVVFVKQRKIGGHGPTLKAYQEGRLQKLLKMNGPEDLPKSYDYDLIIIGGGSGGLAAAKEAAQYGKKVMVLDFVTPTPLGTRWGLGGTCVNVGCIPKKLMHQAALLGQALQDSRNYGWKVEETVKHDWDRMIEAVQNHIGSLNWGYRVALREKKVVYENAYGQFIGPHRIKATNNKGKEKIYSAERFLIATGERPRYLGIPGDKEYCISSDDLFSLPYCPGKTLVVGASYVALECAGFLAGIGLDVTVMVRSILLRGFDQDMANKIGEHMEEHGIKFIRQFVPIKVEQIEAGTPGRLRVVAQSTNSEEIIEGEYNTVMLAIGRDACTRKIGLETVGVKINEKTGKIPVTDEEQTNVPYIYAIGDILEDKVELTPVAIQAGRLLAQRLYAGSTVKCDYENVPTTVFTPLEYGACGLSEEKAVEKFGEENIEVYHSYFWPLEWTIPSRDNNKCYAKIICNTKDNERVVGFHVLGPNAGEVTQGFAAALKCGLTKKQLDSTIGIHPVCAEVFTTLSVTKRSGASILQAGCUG", "experiment": "Inhibition of cellular thioredoxin reductase in MCF-7 cells grown in 1 μM Se", "assay_type": "cell-based", "experimental": "FIG. 3. Inhibition of cellular thioredoxin reductase by PX-916. MCF-7 human breast cancer cells grown in medium containing 1 μM Se for 7 days were treated with PX-916 and total cellular thioredoxin reductase activity measured. A. Time course of the inhibition of the thioredoxin reductase on exposure to 1 μM PX-916. […] In both cases values are the mean of 3 separate determinations and bars are S.E. P≦0.04 or **p≦0.01. C. Inhibition of MCF-7 tumor thioredoxin reductase by PX-916. MCF-7 human breast cancer xenografts were grown in female scid mice implanted with 17-β-estradiol 60 day slow-release pellets until they were ˜300 mm^3. The mice were administered a single dose of PX-916 of 25 mg/kg i.v. and tumors harvested at various times. Thioredoxin reductase activity was measured in tumor homogenates. Values are the mean of 3 mice at each time point and bars are SE. **p<0.01 compared to pretreatment value.\nCell growth inhibition of MCF-7 human breast cancer cells by palmarumycin, PX-916 and PX-960 occurred at similar concentration of 1 to 3 μM (Table 2). MCF-7 human breast cancer cells were grown in medium containing 1 μM selenium (Se) for 7 days which increased cellular thioredoxin reductase activity by about 5 fold as previously reported. […] Thus, inhibition of purified human TR, MCF-7 cellular TR and cell growth inhibition of MCF-7 cells by PX-916 occurred at about the same concentrations."}, "[4]": {"experiment": "Toxicity in female scid mice", "assay_type": "in vivo, mouse"}, "[5]": {"details": "25 mg/kg i.v. x5, 24 hr after last dose"}, "[6]": {"details": "25 mg/kg iv QD × 5, 24 hr after last dose, mean ± SE"}}, "note": "Read-outs that look alike come from different tables or passages of the source."}
{"smiles": "NCC(=O)Oc1ccc2c3c(cccc13)OC1(C=CC(=O)c3c(O)cccc31)O2", "note": "(stereo not drawn) [PX-916, O-glycyl naphthoquinone spiroketal]", "values": [{"measurement": "concentration increase needed to inhibit cytochrome P-450 reductase", "setting": "[1]", "result": "greater than 100 fold"}, {"measurement": "IC50", "setting": "[1]; Table 3, read-out: Inhibition IC50, cytochrome P-450 reductase (recombinant)", "result": 29.2, "unit": "µM"}, {"measurement": "selectivity ratio", "setting": "[2]; Table 3, read-out: Selectivity for TR vs cytochrome P-450 reductase", "result": 104}, {"measurement": "selectivity ratio", "setting": "[2]; read-out: selectivity for human TR vs human cytochrome P-450 reductase", "result": "≥ 200"}, {"measurement": "time of maximum inhibition of cellular TR", "setting": "[3]; MCF-7 cells exposed to 1 μM", "result": 24, "unit": "h"}, {"measurement": "concentration of maximum inhibition of cellular TR", "setting": "[3]; MCF-7 cells, 17 hours exposure", "result": 0.5, "unit": "µM"}, {"measurement": "major toxicities observed", "setting": "[4]; [5]", "result": "neutropenia and thrombocytopenia"}, {"measurement": "plasma liver enzymes", "setting": "[4]; [5]", "result": "no observable increase"}, {"measurement": "weight loss", "setting": "[4]; [5]", "result": "no significant weight loss"}, {"measurement": "ALT", "setting": "[4]; [6]", "result": "39.8 ± 12.8", "unit": "U/I"}, {"measurement": "AST", "setting": "[4]; [6]", "result": "166.9 ± 29.8", "unit": "U/I"}, {"measurement": "Hb", "setting": "[4]; [6]", "result": "14.9 ± 0.4", "unit": "g/dL"}, {"measurement": "LY", "setting": "[4]; [6]", "result": "0.3 ± 0.1", "unit": "K/μl"}, {"measurement": "MO", "setting": "[4]; [6]", "result": "005 ± 0.01", "unit": "K/μl"}, {"measurement": "NE", "setting": "[4]; [6]", "result": "0.9 ± 0.3", "unit": "K/μl"}, {"measurement": "PLT", "setting": "[4]; [6]", "result": "436 ± 142", "unit": "K/μl"}, {"measurement": "RBC", "setting": "[4]; [6]", "result": "8.9 ± 0.4", "unit": "M/μl"}, {"measurement": "WB", "setting": "[4]; [6]", "result": "1.3 ± 0.6", "unit": "K/μl"}, {"measurement": "Δbodywt", "setting": "[4]; [6]", "result": "-0.6 ± 0.3", "unit": "g"}, {"measurement": "tolerability", "setting": "[4]; 5 daily doses of 25 mg/kg i.v., female scid mice", "result": "tolerated"}, {"measurement": "lethality", "setting": "[4]; single i.v. dose of 50 mg/kg, female scid mice", "result": "lethal"}]}
